# Measured values published in patent US20250302965A1, “Preparations of Basic pH Hydrotropes & Methods for Making Same” (Aurora Pharmaceutical, Inc., priority 2023, published 2025).
# Assay: Meloxicam formulations at different meglumine-to-meloxicam molar ratios; neutralization
# Type: physicochemical
# Details: […] w/v meloxicam formula, 2:1 meglumine-to-meloxicam, neutralized; pH crossed neutral
row,Compound,Behaviour on neutralization
1,Cc1cnc(NC(=O)C2=C(O)c3ccccc3S(=O)(=O)N2C)s1 [Meloxicam],fell out of solution

# Assay: not given
# Details: cited from earlier work
row,Compound,acidity (pKa)
1,CNC[C@H](O)[C@@H](O)[C@H](O)[C@H](O)CO [Meglumine],8.01

# Assay: not given
# Details: source named in cell (Merck Index, Pubchem, published literature); cited from earlier work
row,Compound,Reported Solubility in Water (in w/v)
1,CC(C(=O)O)c1ccc2c(c1)[nH]c1ccc(Cl)cc12 (stereo not drawn) [Carprofen],0.00411% (Pubchem) % w/v
2,Nc1ccc(S(=O)(=O)Nc2ncccn2)cc1 [Sulfadiazine],0.0077% (Pubchem) % w/v
3,COc1cc(NS(=O)(=O)c2ccc(N)cc2)nc(OC)n1 [Sulfadimethoxine],0.0343% (Pubchem) % w/v
4,CN1C(C(=O)Nc2ccccn2)=C(O)c2ccccc2S1(=O)=O [Piroxicam],0.00497% (Pubchem) % w/v
5,CCc1nc2c(C)nc(C)cc2n1-c1ccc(CCNC(=O)NS(=O)(=O)c2ccc(C)cc2)cc1 [Grapiprant],Insoluble (Pubchem)
6,CCc1ccc(Nc2c(F)c(F)cc(F)c2F)c(CC(=O)O)c1 [Robenacoxib],0.017% (published literature) % w/v

# Assay: Solubilization by meglumine chelate system (hydrotrope) at basic pH
# Details: basic pH with meglumine
row,Compound,Dissolution after treatment to create a chelate system
1,CCN1CCN(c2cc3c(cc2F)c(=O)c(C(=O)O)cn3C2CC2)CC1 [Enrofloxacin],Contains only tertiary amines and only one aromatic group and did not dissolve when tested.
2,O=C(CNC(=O)c1ccc(C2=NOC(c3cc(Cl)cc(C(F)(F)F)c3)(C(F)(F)F)C2)c2ccccc12)NCC(F)(F)F (stereo not drawn) [Afoxolaner],"Contains two amides and two aromatic groups, but the amides are not on a chain between the two aromatic groups. The one nitrogen atom that is between the two aromatic groups is not a secondary amine, amide or amino sulfone and did not dissolve when tested."
3,O=C(NC(=O)c1c(F)cccc1F)Nc1cc(Cl)c(OC(F)(F)C(F)C(F)(F)F)cc1Cl (stereo not drawn) [Lufenuron],Contains two aromatic groups separated by two amide groups between the two aromatic groups and did not dissolve when tested.
4,CS(=O)(=O)c1ccc([C@@H](O)[C@@H](CF)NC(=O)C(Cl)Cl)cc1 [Florfenicol],"Contains an amide and an aryl sulfone, but only one aromatic group and did not dissolve when tested."
5,COC(=O)Nc1nc2ccc(Sc3ccccc3)cc2[nH]1 [Fenbendazole],"Contains two aromatic groups and an amide, but the amide is not on the chain between the two aromatic groups and did not dissolve when tested."
6,CO/N=C1\C[C@]2(C[C@@H]3C[C@@H](C/C=C(\C)C[C@@H](C)/C=C/C=C4\CO[C@@H]5[C@H](O)C(C)=C[C@@H](C(=O)O3)[C@]45O)O2)O[C@H](/C(C)=C/C(C)C)[C@H]1C [Moxidectin],"No amines, amides, amino sulfones, or aromatic groups and did not dissolve when tested."
7,CC1(C)OC(=O)C(OCC2CC2)=C1c1ccc(S(C)(=O)=O)cc1 [Firocoxib],Does not contain any nitrogen and only one aromatic group with an aryl sulfone and did not dissolve when tested.
8,COc1ccc(-c2cc(C(F)F)nn2-c2ccc(S(N)(=O)=O)cc2)cc1F [Deracoxib],"Contains two aromatic groups and an aryl amino sulfone but the two nitrogen atoms between the aromatic groups are not secondary amines, amides or amino sulfones and did not dissolve when tested."
9,Cc1cc(-n2c(=O)[nH]c(=O)n(C)c2=O)ccc1Oc1ccc(S(=O)(=O)C(F)(F)F)cc1 [Ponazuril],"Contains two aromatic groups and a sulfoxide and an amide, but the amide is not on the chain between the two aromatic rings and did not dissolve when tested."
10,O=[N+]([O-])/N=C1\NCCN1Cc1ccc(Cl)nc1 [Imidacloprid],Contains a secondary amine and other nitrogen containing groups but only one aromatic group and did not dissolve when tested.
11,COc1ccc2[nH]c([S+]([O-])Cc3ncc(C)c(OC)c3C)nc2c1 (stereo not drawn) [Omeprazole],"Contains an aromatic benzene ring, a sulfoxide and an aromatic benzimidazole group, but it does not contain a secondary amine, amide or amino sulfone group and did not dissolve when tested."
12,CC[C@H](C)[C@H]1O[C@]2(C=C[C@@H]1C)C[C@@H]1C[C@@H](C/C=C(\C)[C@@H](O[C@H]3C[C@H](OC)[C@@H](O[C@H]4C[C@H](OC)[C@H](NC(C)=O)[C@H](C)O4)C(C)O3)[C@@H](C)/C=C/C=C3\CO[C@@H]4[C@H](O)C(C)=C[C@@H](C(=O)O1)[C@]34O)O2 (stereo partly drawn) [Eprinomectin],"Contains an amide, but no amines, amino sulfones or aromatic groups and did not dissolve when tested."

# Same assay, conditions: basic pH, meglumine at least 2:1 molar ratio (meglumine to molecule)
row,Compound,Examples of Solubilities Demonstrated in Experiments (in w/v)
1,CCc1nc2c(C)nc(C)cc2n1-c1ccc(CCNC(=O)NS(=O)(=O)c2ccc(C)cc2)cc1 [Grapiprant],At least 1.5% w/v
